# Like-named read-outs stand apart in the source and are kept apart here.
# How the values were obtained:
# [1] = system: LMP1 expression in Kem I cells; test: microbe, parasite or virus in culture; type: cell-based, EBV; conditions: for fold induction at 1 µM: human gammaherpesvirus 4, 48 h
# [2] = system: LMP1 and Cp transcripts in Kem I, Mutu I, and Rael cell lines; type: cell-based, EBV
# [3] = system: LMP1 and EBNA3C proteins in BL cells; test: Immunoblot for viral proteins in BL cells; type: cell-based, EBV; conditions: 48 hours
# Procedure: Immunoblot was performed with the standard procedure using the following antibodies: β-actin (GeneTex), BZLF1 (Santa Cruz), EBNA1 (Santa Cruz), EBNA2 (AbCam), EBNA3C (gift from Benjamin Gewurz), GAPDH (GeneTex), and LMP1 (AbCam).
# Since decitabine and 5-azacytadine were the top hits on the epigenetic screen, the effect of these agents on latency II/III transcript and protein expression was investigated as well as the dose-response in a panel of BL cell lines. BL cells were treated with decitabine or 5-azacytidine over a range of doses. Viral antigen expression was evaluated by qRT-PCR, immunoblot, and immunohistochemistry. […] This was associated with upregulation of LMP1 and EBNA3C proteins (FIG. 2B).
# [4] = system: EBNA2 and LMP1 in Mutu I, Kem I, and Rael cells; test: Immunohistochemistry on cell blocks, statement across the three cell lines; type: cell-based, EBV; conditions: 5-Aza at 4 uM, 48 hours, compared with decitabine
# Procedure: Cell blocks were generated from cell lines in suspension by fixation in 10% formalin. Immunohistochemistry on cell blocks and mouse tumors was performed with the following antibodies: EBNA2 (abcam #ab90543), LMP1 (Dako #M0897), BZLF1 (Santa Cruz #SC-53904), CD8 (Leica #PA0183), PD-1 (Dako #M3653), PD-L1 (Cell Marque #315M-98). The Halo® image analysis software program (Indica Labs) was used to quantify immunohistochemical stains.
# Next it was determined the percentage of cells that convert to expressing latency […] antigens after treatment with decitabine or 5-azacytadine. To do this, EBV antigen expression at the single-cell level was evaluated by immunohistochemistry (IHC) from cell blocks. Cells were treated with 5-azacytidine, decitabine, or vehicle control. Cell blocks were then evaluated by IHC for LMP1 and EBNA2. The percentage of positive cells was quantified with HALO image analysis. […] 5-azacytidine induced a more modest expression of EBNA2 and LMP1 across the three cell lines (FIGS. 2E-F). Based on these observations, decitabine was further investigated as a potential agent to induce expression of immunogenic viral antigens in latency I tumors.
# Mutu I = test: Cell viability, CellTiter-Glo; conditions: read-out: 48 Hour IC50
# Procedure: (§1) Cell viability was determined using CellTiter-Glo (Promega) and the GloMax® Multi+ detection system (Promega).
# (§2) Cell viability was determined using an ATP based luminescent assay (CellTiter-Glo, Promega) and the GloMax® Multi+ detection system (Promega). IC50 values were calculated using Prism 6 software.
# (§3) To determine if induction of LMP1 and EBNA3 were linked to hypomethylating agent-induced cell death, cells were exposed to decitabine or 5-azacytadine over a range of doses and cell viability evaluated with the ATP-based Cell Titer-Glo® assay.
# Kem I = test: Cell viability, CellTiter-Glo; conditions: 48 h, read-out: 48 Hour IC50
# Procedure: as §1, §2, §3
# Rael = test: Cell viability, CellTiter-Glo; conditions: read-out: 48 Hour IC50
# Procedure: as §1, §2, §3
# BL cells = test: Cell viability, CellTiter-Glo, statements for the BL cell panel
# Procedure: as §1, §2, §3
# [5] = Kem I cells, dose 2.5 uM, 48 hours, LMP1 transcript by in-well qRT-PCR, average of the two replicates
# [6] = Kem I cells, dose 2.5 uM, 48 hours, LMP1 transcript by in-well qRT-PCR, screen replicate 1
# [7] = Kem I cells, dose 2.5 uM, 48 hours, LMP1 transcript by in-well qRT-PCR, screen replicate 2
# [8] = Kem I cells, 2.5 uM, 48 hours, average of replicates 1 and 2
# [9] = Kem I cells, 2.5 uM, 48 hours, fold change in LMP1 transcript vs vehicle
Compound,"Average LMP1 Fold Increase [1, 8]","Replicate 1-LMP1 Fold Increase [1, 9]","Replicate 2-LMP1 Fold Increase [1, 9]",further results
Nc1ncn([C@@H]2O[C@H](CO)[C@@H](O)[C@H]2O)c(=O)n1 [5-azacytidine],–,–,–,"fold induction at 1 µM ([1]; read-out: Average LMP1 Fold Increase, Kem I cells, 1 uM, 48 hours, average of replicates 1 and 2): 4.1; fold induction at 1 µM ([1]; read-out: Replicate 1-LMP1 Fold Increase, Kem I cells, 1 uM, 48 hours, fold change in LMP1 transcript vs vehicle): 5.77; fold induction at 1 µM ([1]; read-out: Replicate 2-LMP1 Fold Increase, Kem I cells, 1 uM, 48 hours, fold change in LMP1 transcript vs vehicle): 2.43; optimal dose for induction ([2]; BL cells): 1 to 4 µM; induction of LMP1 and Cp ([2]; at doses <1 μM, 48 hours): minimal; LMP1 and EBNA3C proteins (immunoblot) [3]: not associated with significant induction; expression of EBNA2 and LMP1 (IHC) [4]: more modest; IC50 (Mutu I): 4 µM; IC50 (Kem I): > 5 µM; IC50 (Rael): 2.2 µM; IC50 (BL cells): ≥ 2.2 µM; change in cell viability (BL cells; at the optimal dose for induction): minimal change"
Cl.Cl.Cl.O[C@@H](COc1cccc2ncccc12)CN1CCN([C@@H]2c3ccccc3[C@@H]3[C@H](c4ccccc42)C3(F)F)CC1 [Zosuquidar (LY335979) 3HCl],–,–,–,"Average LMP1 Fold Increase [1, 5]: 0.79 fold; Replicate 1-LMP1 Fold Increase [1, 6]: 0.64 fold; Replicate 2-LMP1 Fold Increase [1, 7]: 0.94 fold"
(−)-MK 801 Maleate,0.88,0.94,0.81,–
BAM7,0.93,0.51,1.35,–
CHIR-98014,–,–,–,Average LMP1 Fold Increase [1]: 0.67; Replicate 1-LMP1 Fold Increase [1]: 0.81; Replicate 2-LMP1 Fold Increase [1]: 0.54
HA14-1,0.73,0.62,0.83,–
I-BET151 (GSK1210151A),1.39,1.41,1.38,–
Ifenprodil Tartrate,0.96,0.58,1.35,–
KX2-391,1.63,2.01,1.25,–
Maraviroc,1.08,0.44,1.72,–
OG-L002,1.15,1.03,1.27,–
Pifithrin-μ,0.78,0.40,1.17,–
S3I-201,0.65,0.63,0.67,–
SN-38,1.10,0.95,1.26,–
SNS-314 Mesylate,0.51,0.71,0.32,–
VU 0357121,–,–,–,"Average LMP1 Fold Increase [1, 5]: 0.48 fold; Replicate 1-LMP1 Fold Increase [1, 6]: 0.51 fold; Replicate 2-LMP1 Fold Increase [1, 7]: 0.46 fold"
VU 0364439,–,–,–,"Average LMP1 Fold Increase [1, 5]: 0.90 fold; Replicate 1-LMP1 Fold Increase [1, 6]: 1.34 fold; Replicate 2-LMP1 Fold Increase [1, 7]: 0.45 fold"
VU 0364770,–,–,–,"Average LMP1 Fold Increase [1, 5]: 1.03 fold; Replicate 1-LMP1 Fold Increase [1, 6]: 0.51 fold; Replicate 2-LMP1 Fold Increase [1, 7]: 1.55 fold"
